{"source": "patent US12398160B2", "about": "“Cot modulators and methods of use thereof” (Gilead Sciences, Inc., priority 2019, dated 2025)", "assay": "In vivo dog pharmacokinetics", "conditions": "for AUC0-72 h: beagle dogs N=3", "key": {"[1]": {"conditions": "plasma level of the labelled analyte after oral dose of Compound B (9.7 mg-eq/kg), powder in capsule"}}}
{"smiles": "Cn1ccc2c([C@H](Nc3cc(Cl)c4ncc(C#N)c(NCC(C)(C)C)c4c3)c3cn(C45CC(C4)C5)nn3)cccc2c1=O", "note": "[Compound A]", "values": [{"measurement": "AUC0-72 h for Compound A in plasma, dosing with Compound B compared with equivalent dose of Compound A", "setting": "beagle dogs, powder in capsule, after dosing with Compound B versus Compound A", "value": "higher"}]}
{"smiles": "Cn1ccc2c([C@@H](c3cn(C45CC(C4)C5)nn3)N(C(=O)OCO)c3cc(Cl)c4ncc(C#N)c(NCC(C)(C)C)c4c3)cccc2c1=O", "note": "[Intermediate A]", "values": [{"measurement": "AUC0-72 h", "setting": "[1]", "value": "BLQ"}]}
{"smiles": "Cn1ccc2c([C@@H](c3cn(C45CC(C4)C5)nn3)N(C(=O)OCCCOP(=O)(O)O)c3cc(Cl)c4ncc(C#N)c(NCC(C)(C)C)c4c3)cccc2c1=O", "note": "[Compound C]", "values": [{"measurement": "In vivo conversion after dosing", "setting": "beagle dogs, Compound C solution formulation, 72 hour period", "value": "converted in vivo to both Compound D and Compound A in measurable amounts"}, {"measurement": "AUC0-72 h", "setting": "plasma level of the labelled analyte after oral dose of Compound C (3 mg-eq/kg), 3 mg/mL solution", "value": "BLQ"}]}
{"smiles": "Cn1ccc2c([C@@H](c3cn(C45CC(C4)C5)nn3)N(C(=O)OCOP(=O)(O)O)c3cc(Cl)c4ncc(C#N)c(NCC(C)(C)C)c4c3)cccc2c1=O", "note": "[Compound B]", "values": [{"measurement": "AUC0-72 h", "setting": "[1]", "value": "BLQ"}]}
